Data on 43 compounds can be found in US8815909B2, “Diaminocyclohexane compounds and uses thereof” (Bristol-Myers Squibb Company, priority 2011, dated 2014).

Structures can show the parent of a compound that is named as a salt.

For orientation: EC50 means the concentration at which the effect is half-maximal.

The target of the first assay is T1, human Y4 receptor (Homo sapiens, UniProt P50391).
T1 construct: expressed in transfected cells
T1 sequence (P50391 whole entry): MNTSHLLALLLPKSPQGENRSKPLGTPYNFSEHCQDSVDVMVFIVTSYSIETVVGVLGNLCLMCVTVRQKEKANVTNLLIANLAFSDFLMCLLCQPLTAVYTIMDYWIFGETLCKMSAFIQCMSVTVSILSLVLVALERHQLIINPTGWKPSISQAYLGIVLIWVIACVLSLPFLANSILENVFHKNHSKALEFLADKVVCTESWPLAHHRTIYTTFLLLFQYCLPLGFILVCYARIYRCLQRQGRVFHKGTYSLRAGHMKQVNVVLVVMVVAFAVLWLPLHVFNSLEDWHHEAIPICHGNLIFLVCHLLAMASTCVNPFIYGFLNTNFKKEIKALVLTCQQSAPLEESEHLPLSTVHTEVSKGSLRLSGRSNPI
Put plainly: NPY4 cAMP HTRF Agonist Assay (inhibitory cAMP assay, Gi activation by Y4 agonism). The class given is cell-based. Particulars: TABLE 2, R2 is Phenyl-CN; read-out: hY4 CAMP EC50. In outline: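 Y4 agonism read as lowered forskolin-stimulated cAMP (HTRF, 1 h detection at room temperature). Stable human Y4 CHO clone, 5000 cells/well, incubated 30 min at room temperature with compounds plus forskolin and IBMX in PBS.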
In general terms: TR-FRET usually uses a lanthanide donor and a delayed reading to cut background.
`N#Cc1ccc(N2C[C@@H]3C[C@H](N[C@@H]4CCCC[C@H]4Nc4ncc(-c5ccccc5OC(F)(F)F)o4)[C@H]2C3)cc1` [Example 224]: the EC50 amounted to 2 nM.
As for `N#Cc1ccc(N2CCC[C@H](N[C@@H]3CCCC[C@H]3Nc3cn(-c4ccc(OC(F)(F)F)cc4)nn3)C2)cc1` [Example 202], the EC50 came out at 774 nM.
Consider `N#Cc1ccc(N2CCC[C@H](N[C@@H]3CCCC[C@H]3Nc3cc(-c4cccc5c4NC(=O)C5)ccn3)C2)cc1` [Example 213], for which the EC50 came out at 183 nM.
`CC(=O)Nc1cc(-c2ccnc(N[C@@H]3CCCC[C@H]3N[C@H]3CCCN(c4ccc(C#N)cc4)C3)c2)ccn1` [Example 277]: the EC50 turned out to be 8 nM.
Still for that read-out and setting: the result for `N#Cc1ccc(N2CCC[C@H](N[C@@H]3CCCC[C@H]3Nc3cc(-c4cccc(N)c4)ccn3)C2)cc1` [Example 279] reads 12 nM; that for `N#Cc1ccc(N2CCC[C@H](N[C@@H]3CCCC[C@H]3Nc3cc(-c4ccc(N)cc4)ccn3)C2)cc1` [Example 239], 290 nM; that for `N#Cc1ccc(N2C[C@@H]3C[C@H](N[C@@H]4CCCC[C@H]4Nc4ncc(-c5cccc(C(N)=O)c5)o4)[C@H]2C3)cc1` [Example 264], 7 nM.

Still in this assay, the particulars now being: TABLE 4, R2 is Pyridinyl-CN; read-out: hY4 CAMP EC50.
Consider `N#Cc1cc(N2CCC[C@H](N[C@@H]3CCCC[C@H]3Nc3ncc(-c4ccccc4OC(F)(F)F)o3)C2)ccn1` [Example 311], for which the EC50 amounted to 9 nM.
The same measure, in the same setting: the result for `CC(C)(O)c1cccc(-c2ccnc(N[C@@H]3CCCC[C@H]3N[C@H]3CCCN(c4ccc(C#N)nc4)C3)c2)c1` [Example 317] reads 105 nM.
For `C[C@]1(N[C@@H]2CCCC[C@H]2Nc2ncc(-c3cccc(C(N)=O)c3)o2)CCCN(c2ccc(C#N)nc2)C1` [Example 304], the half-maximal effective concentration (EC50) was 3 nM.

The assay is the same for the next values; noted with them: TABLE 5, R2 is Pyridinyl-CF3; read-out: hY4 CAMP EC50.
On to `COC(=O)Nc1cccc(-c2cnc(N[C@@H]3CCCC[C@H]3N[C@H]3CCCN(c4ccc(C(F)(F)F)nc4)C3)o2)c1` [Example 331], for which the EC50 was determined as 5 nM.
Turning to `COC(=O)c1cccc(-c2cnc(N[C@@H]3CCCC[C@H]3N[C@H]3CCCN(c4ccc(C(F)(F)F)cn4)C3)o2)c1` [Example 330], the EC50 is 166 nM.
Turning to `CC(C)(C)OC(=O)Nc1cccc(-c2cnc(N[C@@H]3CCCC[C@H]3N[C@H]3CCCN(c4ccc(C(F)(F)F)nc4)C3)o2)c1` [Example 333], the EC50 turned out to be 95 nM.

The assay is the same for the next values; noted with them: TABLE 7, R2 is Pyridinyl-oxadiazole-CH3; read-out: hY4 CAMP EC50.
Take `COC(=O)c1cccc(-c2cnc(N[C@@H]3CCCC[C@H]3N[C@H]3CCCN(c4ccc(-c5noc(C)n5)nc4)C3)o2)c1` [Example 383]: the EC50 came out at 14 nM.

The assay is the same for the next values; noted with them: human Y4 receptor, cAMP; read-out: hY4 CAMP EC50.
On to `Cc1nc2ccc(N3CCC[C@H](N[C@@H]4CCCC[C@H]4Nc4ncc(-c5cccc(C(=O)NC6CC6)c5)o4)C3)cn2n1` [Example 494], for which the half-maximal effective concentration (EC50) was 42 nM.
Consider `C[C@]1(N[C@@H]2CCCC[C@H]2Nc2ncc(-c3cccc(C(N)=O)c3)o2)CCCN(c2ccc(C(=O)NC(=O)C3CC3)nc2)C1` [Example 446], for which the EC50 is 6 nM.
On to `CC(C)COC(=O)Nc1cccc(-c2cnc(N[C@@H]3CCCC[C@H]3N[C@H]3CCCN(c4cnc(C(F)(F)F)nc4)C3)o2)c1` [Example 419], for which the 50% effective concentration (EC50) amounted to 7 nM.
On to `C[C@]1(N[C@H]2CCCC[C@@H]2Nc2cc(-c3cccc(C(N)=O)c3)ccn2)CCCN(c2cnc(C(F)(F)F)nc2)C1` [Example 418], for which the EC50 came out at 48 nM.
The same measure, in the same setting: then `Cc1nc(-c2ncc(N3CCC[C@H](N[C@@H]4CCCC[C@H]4Nc4cc(-c5ccc(F)cc5F)ccn4)C3)cn2)no1` [Example 468], with 9 nM.
Consider `NC(=O)c1cccc(-c2ccnc(N[C@@H]3CCCC[C@H]3N[C@H]3CCCN(c4ncc(C(F)(F)F)cn4)C3)c2)c1` [Example 399], for which the EC50 is 22 nM.
Consider `CNC(=O)c1cccc(-c2ccnc(N[C@@H]3CCCC[C@H]3N[C@H]3CCCN(c4cnc(-c5noc(C)n5)nc4)C3)c2)c1` [Example 464], for which the EC50 was 42 nM.
For the compound `Cc1nnc(-c2ccc(N3CCCC(N[C@@H]4CCCC[C@H]4Nc4cc(-c5cncc6ccccc56)ccn4)C3)cc2)o1` (stereo partly shown) [Example 371], the EC50 is 18 nM.
On the same count and under the same terms, the result for `CC(C)(C)OC(=O)Nc1cccc(-c2cnc(N[C@@H]3CCCC[C@H]3N[C@H]3CCCN(c4ccc5ncnn5c4)C3)o2)c1` [Example 488] reads 699 nM; that for `Cc1noc(-c2ccc(N3CCC[C@H](N[C@@H]4CCCC[C@H]4Nc4nccc(-c5ccccc5)n4)C3)cc2)n1` [Example 354], 15 nM; that for `Cc1nnc(-c2ccc(N3CCC[C@H](N[C@@H]4CCCC[C@H]4Nc4cc(Br)ccn4)C3)cc2)o1` [Example 352], 318 nM.
On to `C[C@]1(N[C@@H]2CCCC[C@H]2Nc2ncc(-c3cccc(C(N)=O)c3)o2)CCCN(c2ncc(C(F)(F)F)cn2)C1` [Example 405], for which the EC50 stood at 4 nM.
As to `CC(=O)Nc1cccc(-c2ccnc(N[C@@H]3CCCC[C@H]3N[C@H]3CCCN(c4ccc(-c5nnn(C)n5)cc4)C3)c2)c1` [Example 506], the EC50 stood at 0.2 nM.
Consider `Cn1nnc(-c2ccc(N3CCC[C@H](N[C@@H]4CCCC[C@H]4Nc4cc(-c5cccc(O)c5)ccn4)C3)cc2)n1` [Example 504], for which the EC50 came out at 0.3 nM.

The same assay, now with this note: human Y4 stable CHO clonal cells, forskolin + IBMX; read-out: NPY4 cAMP HTRF Agonist Assay EC50.
As to `N#Cc1ccc(N2CCC[C@H](N[C@@H]3CCCC[C@H]3Nc3ncc(-c4ccc(OC(F)(F)F)cc4)o3)C2)cc1F` [Example 49, 2-Fluoro-4-((S)-3-((1R,2R)-2-(5-(4-(trifluoromethoxy)phenyl)oxazol-2-ylamino)cyclohexylamino)piperidin-1-yl)benzonitrile bis-trifluoroacetate], the EC50 stood at 2 nM.
With `O=[N+]([O-])c1ccc(N2CCC[C@H](N[C@@H]3CCCC[C@H]3Nc3ncc(-c4ccc(F)cc4F)o3)C2)cc1` [Example 20, (1R,2R)—N1-(5-(2,4-Difluorophenyl)oxazol-2-yl)-N2-((S)-1-(4-nitrophenyl)piperidin-3-yl)cyclohexane-1,2-diamine], the EC50 stood at 10 nM.
Consider `O=C(Nc1nncs1)c1ccnc(N[C@@H]2CCCC[C@H]2N[C@H]2CCCN(c3ccc(C(F)(F)F)cc3)C2)c1` [Example 112], for which the EC50 was 590 nM.
For the compound `c1ccc(-c2cnc(N[C@@H]3CCCC[C@H]3N[C@H]3CCCN(c4ccc(-n5cccn5)cc4)C3)o2)cc1` [Example 62, (1R,2R)—N1-((S)-1-(4-(1H-Pyrazol-1-yl)phenyl)piperidin-3-yl)-N2-(5-phenyloxazol-2-yl)cyclohexane-1,2-diamine trifluoroacetate], the EC50 is 61 nM.
As to `O=[N+]([O-])c1ccc(N2CCC[C@H](N[C@@H]3CCCC[C@H]3Nc3ncc(-c4ccccc4)s3)C2)cc1` [Example 26], the EC50 came to 8 nM.
On to `Cc1cnn(-c2ccc(N3CCC[C@H](N[C@@H]4CCCC[C@H]4Nc4nccc(-c5ccccc5)n4)C3)cc2)c1` [Example 65, (1R,2R)—N1-((S)-1-(4-(4-Methyl-1H-pyrazol-1-yl)phenyl)piperidin-3-yl)-N2-(4-phenylpyrimidin-2-yl)cyclohexane-1,2-diamine bis-trifluoroacetate], for which the half-maximal effective concentration (EC50) is 62 nM.
Turning to `Fc1cc(N2CCC[C@H](N[C@@H]3CCCC[C@H]3Nc3nccc(-c4ccccc4)n3)C2)ccc1C(F)(F)F` [Example 74, (1R,2R)—N1-((S)-1-(3-Fluoro-4-(trifluoromethyl)phenyl)piperidin-3-yl)-N2-(4-phenylpyrimidin-2-yl)cyclohexane-1,2-diamine bis-trifluoroacetate], the EC50 is 420 nM.
Take `C[C@]1(N[C@@H]2CCCC[C@H]2Nc2ncc(-c3cccc(C(N)=O)c3)o2)CCCN(c2ccc(C(F)(F)F)cc2)C1` [Example 106, 3-(2-(((1R,2R)-2-(((S)-3-Methyl-1-(4-(trifluoromethyl)phenyl)piperidin-3-yl)amino)cyclohexyl)amino)oxazol-5-yl)benzamide]: the EC50 turned out to be 0.3 nM.
For the compound `O=[N+]([O-])c1ccc(N2CCC[C@H](N[C@@H]3CCCC[C@H]3Nc3ncc(-c4ccc(OC(F)(F)F)c(F)c4)o3)C2)cc1` [Example 8, (1R,2R)—N1-(5-(3-Fluoro-4-(trifluoromethoxy)phenyl)oxazol-2-yl)-N2-((S)-1-(4-nitrophenyl)piperidin-3-yl)cyclohexane-1,2-diamine], the EC50 was 16 nM.
Same read-out and setting: the result for `c1ccc(-c2cnc(N[C@@H]3CCCC[C@H]3N[C@H]3CCCN(c4ccc(-n5cncn5)cc4)C3)o2)cc1` [Example 90, (1R,2R)—N1-((S)-1-(4-(1H-1,2,4-Triazol-1-yl)phenyl)piperidin-3-yl)-N2-(5-phenyloxazol-2-yl)cyclohexane-1,2-diamine bis-trifluoroacetate] reads 132 nM.
As for `N#Cc1ccc(N2CCC[C@H](N[C@@H]3CCCC[C@H]3Nc3cc(-c4ccccc4)ccn3)C2)cc1` [Example 53, 4-((S)-3-((1R,2R)-2-(4-Phenylpyridin-2-ylamino)cyclohexylamino)piperidin-1-yl)benzonitrile bis-trifluoroacetate], the EC50 worked out at 95 nM.
Turning to `FC(F)(F)Oc1ccc(-c2cnc(N[C@@H]3CCCC[C@H]3N[C@H]3CCCN(c4ccc(C(F)(F)F)cc4)C3)o2)cc1` [Example 71, (1R,2R)—N1-(5-(4-(Trifluoromethoxy)phenyl)oxazol-2-yl)-N2-((S)-1-(4-(trifluoromethyl)phenyl)piperidin-3-yl)cyclohexane-1,2-diamine], the EC50 came to 45 nM.
The same measure, in the same setting: then `NC(=O)c1cccc(-c2cnc(N[C@@H]3CCCC[C@H]3N[C@H]3CCCN(c4ccc(C(F)(F)F)cc4)C3)o2)c1` [Example 104, (3-(2-((1R,2R)-2((S)-1-(4-trifluoromethyl)phenyl)piperidin-3-ylamino)cyclohexylamino)oxazol-5-yl)benzamide], with 0.2 nM.

Staying with this assay, now noted: second TABLE 1, R2 is Phenyl-CF3; read-out: hY4 CAMP EC50.
With `OCCc1ccccc1-c1ccnc(N[C@@H]2CCCC[C@H]2N[C@H]2CCCN(c3ccc(C(F)(F)F)cc3)C2)c1` [Example 156], the EC50 turned out to be 50 nM.
For `FC(F)(F)c1ccc(N2CCC[C@H](N[C@@H]3CCCC[C@H]3Nc3cc(-c4ccncc4)ccn3)C2)cc1` [Example 191], the EC50 was found to be 48 nM.
